Results taken from patent US4356306A, “Water-soluble derivatives of 6,6'-methylene-bis-(2,2,4-trimethyl-1,2-dihydroquinoline)” (Material Vegyipari Szovetkezet, priority 1979, dated 1982).

Key:
[1] = known radioprotective compounds; cited from earlier work
[2] = inhibitor activity on the polymerization of acrylic acid at 60° C.; format: biochemical; conditions: control 16 hours
Protocol: The efficiency of the compounds of the invention was investigated in vitro by measuring the inhibitor activity of the compounds on the polymerization of acrylic acid at 60° C., and comparing this activity with that of 3.5-di-tert.butyl-4-hydroxy-toluene (BHT) and L-ascorbic acid. The radical binding activity of the compounds was studied.
The times required to polymerization are given in the next Table.

mice = test: protection against hepatotoxic dimethylsulfoxide; format: in vivo; conditions: for death after dimethylsulfoxide / protective activity against dimethylsulfoxide: 100 mg. disulfonic acid or 60 mg. disulfonamide in water and dimethylsulfoxide, i.p. or s.c.
Protocol: The surrounding carcinogens play an important role in the formation of malignant tumors. These carcinogens contain free radicals or they become carcinogenic in the living organism. […] As the radical reactions may be controlled by the antioxidants, they may be employed as therapeutic and as prophylactic agents as well. […] A hepatotoxic substance had to be administered which was simultaneously carcinogenic. Dimethylsulfoxide was suitable. 0.3 ml. of dimethylsulfoxide/mice was administered i.p. or s.c. in an aqueous solution and as a result 7 animals died within 10 days out of 10 test animals.

cancer of the bladder = conditions: large amount of Vitamin-C; cited from earlier work
CFLP mice = test: protection against LD90 radiodose after i.p. administration; format: in vivo; conditions: 1000 mg./kg. i.p., preferably 2 hours before LD90 radiodose
Protocol: The unexpected activity of the new compounds has been observed during a total body irradiation. As test animals CFLP mice of an average weight of 20 to 22 g. were used, each group consisted of 8 male and 8 female animals. The control group was irradiated with 7 Gy (total body irradiation) and the test groups were treated per os for 10 days with the new water-soluble antioxidant of the invention at a daily dose of 0.5 g./kg. The treatment was followed by 7 Gy total body irradiation. There was no significant difference between the various water-soluble antioxidants and as a result within 30 days two animals of the control group were alive and an average of 12 animals survived in the treated group. A significant result was obtained with X^2 probe, p<0.001 and the Dose Modification Factor (DMF), which is the number of dead animals in the control group related to the number of dead animals in the treated group, amounted to 3.5 at LD80. A dose of 1000 mg./kg. bodyweight of MTDQ disulfonic acid Na was administered i.p. preferably 2 hours before irradiation with an LD90 radiodose and a 100% protective activity was obtained. […] It is known that the radioprotective compounds protect the healthy tissue cells better than the malignant tumor cells.

plasma concentration = format: in vivo
Description: (§1) The concentration of the found MTDQ was the same as if it had not been the compound of the invention that had been administered, but rather MTDQ. […] The radioprotective activity of the water-soluble antioxidant is presumably due to the fact that the radiation energy is predominantly concentrated on the antioxidant and further that in addition to its membrane stabilizing activity the radicals and peroxides formed in the course of the irradiation, are inactivated by the antioxidant, in the well oxygenated cells.

[3] = detection of MTDQ in the liver; format: in vivo; conditions: after administration of the compound of the invention
Description: as §1

malignant tumor tissues = conditions: cited from earlier work

## Br.Br.N=C(N)SCCN [AET, S-2-aminoethyl-isothiuronium-dihydrobromide]
[1]
  duration of effect after administration: extremely limited
  effective doses as radioprotective compound: effective only at subtoxic doses

## Cc1cc(C(C)(C)C)c(O)c(C(C)(C)C)c1 [BHT, 3.5-di-tert.butyl-4-hydroxy-toluene]
[2]; 0.02%
  times required to polymerization: 120 h

## C[S+](C)[O-] [Dimethylsulfoxide]
mice; 0.3 ml./mice i.p. or s.c., out of 10 test animals
  animals died within 10 days: 7 animals

## O=C1O[C@H]([C@@H](O)CO)C(O)=C1O [L-ascorbic acid]
[2]; 0.02%
  times required to polymerization: 18 h
Cancer of the bladder
  cancer of the bladder by beta-naphthyl-amine: does not cause cancer of the bladder

## CC1(C)C=C(CS(=O)(=O)O)c2cc(Cc3ccc4c(c3)C(CS(=O)(=O)O)=CC(C)(C)N4)ccc2N1 [MTDQ disulfonic acid Na, 6,6'-methylene-bis(2,2-dimethyl-4-methanesulfonic acid Na-1,2-dihydroquinoline)]
CFLP mice
  protective activity: 100%

## CC1=CC(C)(C)Nc2ccc(Cc3ccc4c(c3)C(C)=CC(C)(C)N4)cc21 [MTDQ, 6,6'-methylene-bis(2,2,4-trimethyl-1,2-dihydroquinoline)]
Plasma concentration; after administration of the compound of the invention
  concentration of found MTDQ compared with administration of MTDQ itself: the same
Plasma concentration; after administration of the new compounds
  MTDQ in the plasma as metabolite (desulfonation): found in the plasma
[3]
  MTDQ in the liver: could be detected in the liver
Malignant tumor tissues; in vivo
  radiosensibility of malignant tumor tissues: increase the radiosensibility of malignant tumor tissues
Malignant tumor tissues; radiosensitive tumors
  reduction of radiodose for the same effect: at least 50%

## CC1(C)C=C(CS(=O)(=O)O)c2cc(Cc3ccc4c(c3)C(CS(=O)(=O)O)=CC(C)(C)N4)ccc2N1 [MTDQ-disulfonic acid]
mice
  death after dimethylsulfoxide: no death was observed
  protective activity against dimethylsulfoxide: 100%
[2]; concentration not given
  times required to polymerization: 400 h

## NCCCNCCSP(=O)(O)O [WR 2721, S-2-(3-aminopropyl)-aminoethyl-phosphorothioic acid]
[1]
  duration of effect after administration: extremely limited
  effective doses as radioprotective compound: effective only at subtoxic doses

## NCCS [cysteamine, beta-mercapto-ethyl-amine]
[1]
  duration of effect after administration: extremely limited
  effective doses as radioprotective compound: effective only at subtoxic doses

## N[C@@H](CS)C(=O)O [cysteine]
[1]
  duration of effect after administration: extremely limited
  effective doses as radioprotective compound: effective only at subtoxic doses

## CC1(C)C=C(CS(N)(=O)=O)c2cc(Cc3ccc4c(c3)C(CS(N)(=O)=O)=CC(C)(C)N4)ccc2N1 [disulfonamide]
mice
  death after dimethylsulfoxide: no death was observed
  protective activity against dimethylsulfoxide: 100%
